Data as given in ChEMBL document CHEMBL1147756, “Synthesis and antiviral activity of 7-deazaneplanocin A against orthopoxviruses (vaccinia and cowpox virus)” (Bioorg Med Chem Lett, 2006).

Columns and labels:
Cowpox virus = assay: Antiviral activity against Cowpox virus in HFF cells; format: functional, organism-based
Vaccinia virus = assay: Antiviral activity against Vaccinia virus in HFF cells; format: functional, organism-based; details: Orthopoxvirus vaccinia
HFF = assay: Cytotoxicity in HFF cells; format: functional; details: Homo sapiens

Q: For `Nc1ccn(C[C@@H](CO)OCP(=O)(O)O)c(=O)n1` [CIDOFOVIR], which EC50 (Cowpox virus) is on record?
A: Its EC50 is 5 µM.

Q: And the EC50 (Vaccinia virus)?
A: The EC50 was 4.8 µM.

Q: Which CC50 (HFF) does the source give for `Nc1ncnc2c1ccn2[C@@H]1C=C(CO)[C@@H](O)[C@H]1O` [DEAZANEPLANOCIN A] here?
A: The CC50 was greater than 300 µM.

Q: What about the EC50 (Cowpox virus) of the same compound?
A: Its EC50 is 1.2 µM.

Q: What about the EC90 (Cowpox virus) of the same compound?
A: The EC90 was 4.6 µM.

Q: And the EC50 (Vaccinia virus)?
A: Its EC50 is 3.4 µM.

Q: What about the EC90 (Vaccinia virus) of the same compound?
A: Its EC90 is 21.5 µM.
